Data published in patent publication US5039665A, “Use of fructose-1,6-diphosphate for treating myocardial infarction” (priority 1990, dated 1991).

How the values were obtained:
erythrocytes = assay: incubation of erythrocytes: ATP and 2-3 DPG content; type: cell-based; conditions: equimolar, same conditions
Text: (§1) To allow for a broader and more complete interpretation of the results, a small paragraph will be devoted to the ability of FDP to cross the cellular membranes.

rabbit ileum = assay: force of contraction of isolated rabbit ileum; conditions: added to perfusate
Text: as §1

heart preparation = conditions: infusion of Locke's solution plus sugar; cited from earlier work

Row | Compound | ATP content in the erythrocytes (erythrocytes) | force of contraction (rabbit ileum) | amplitude and frequency of heart beats, lactic acid, pH and potassium during recovery (heart preparation)
1 | O=C[C@H](O)[C@@H](O)[C@H](O)[C@H](O)COP(=O)(O)O [glucose-6-phosphate] | failed to increase the ATP content | fail to produce the same effect | –
2 | OC[C@H]1O[C@@](CO)(O[C@H]2O[C@H](CO)[C@@H](O)[C@H](O)[C@H]2O)[C@@H](O)[C@@H]1O [sucrose] | – | – | no significant difference
3 | O=C(CO)[C@@H](O)[C@H](O)[C@H](O)COP(=O)(O)O [fructose-6-phosphate] | failed to increase the ATP content | fail to produce the same effect | –
4 | O=C(CO)[C@@H](O)[C@H](O)[C@H](O)CO [fructose] | failed to increase the ATP content | fail to produce the same effect | no significant difference
5 | O=P(O)(O)O [inorganic phosphate] | failed to increase the ATP content | fail to produce the same effect | –
